BindingDB's records for doi:10.1021/jm00392a002 (1987)
Non-standard residues stand in square brackets, D forms with d. Residues, ends and D or L forms follow the SMILES beside them. ξ: configuration not given here. Met(O) = CS(=O)CC[C@H](N)C(=O)O; ξA = CC(N)C(=O)O; Sar = CNCC(=O)O

What follows are compounds tested against Delta-type opioid receptor (Cavia porcellus) (assay: Evaluated for the inhibition of [3H]DADLE binding to Opioid receptor delta 1 of guinea pig brain).

Compound | IC50
CC(NC(=O)[C@H](Cc1ccccc1)NC(=O)[C@H](CC[S+](C)[O-])NC(=O)[C@@H](N)Cc1ccc(O)cc1)C(N)=O (stereo partly specified) (H-Y[Met(O)]F[ξA]-NH2) | 900 nM
COC(=O)CN(C)C(=O)[C@H](Cc1ccccc1)NC(=O)[C@H](CC[S+](C)[O-])NC(=O)[C@@H](N)Cc1ccc(O)cc1 (stereo partly specified) (H-Y[Met(O)]F[Sar]-OMe) | 510 nM
COC(=O)CN(C)C(=O)[C@H](Cc1ccccc1)NC(=O)[C@H](CC[S+](C)[O-])NC(=O)[C@H](Cc1ccc(O)cc1)N=C(N)N (stereo partly specified) | 150 nM
CN(CC(N)=O)C(=O)[C@H](Cc1ccccc1)NC(=O)[C@H](CC[S+](C)[O-])NC(=O)[C@@H](N)Cc1ccc(O)cc1 (stereo partly specified) (H-Y[Met(O)]F[Sar]-NH2) | 440 nM
CN(CC(=O)O)C(=O)[C@H](Cc1ccccc1)NC(=O)[C@H](CC[S+](C)[O-])NC(=O)[C@@H](N)Cc1ccc(O)cc1 (stereo partly specified) (H-Y[Met(O)]F[Sar]-OH) | 2120 nM
C[C@@H](NC(=O)[C@@H](N)Cc1ccc(O)cc1)C(=O)N[C@@H](Cc1ccccc1)C(=O)NCC(N)=O (H-Y[dA]FG-NH2) | 818 nM
